Converted amounts (≈) assume the structure as drawn. Where two headings read alike, the source gives them in different places.
Assays:
[1] = Room temperature aqueous solubility with solubilizing agents (Example 36); type: physicochemical
Excerpt: The room temperature aqueous solubility (mg/mL) of the a compound (4-{(S)-2-[(S)-2-methoxycarbonylamino)-3-phenylpropanamido]-2-[2-(thiophen-2-yl)thiazol-4-yl]ethyl}phenylsulfamic acid) in water, HPβCD, Poloxamer 407, and sulfobutylether-β-cyclodextrin, is provided in TABLE XXVII. Solubility in saline for the test compound is reduced presumably due to the common ion effect.
The solubility (mg/mL) of the test compound in mixtures of HPβCD and PEG400 is illustrated in TABLE XXVIII.

[2] = human, in vivo
Description: FIG. 9 depicts the mean plasma concentration over time after a single dose of a 5 mg, a 15 mg, a 22.5 mg, or a 30 mg of a test compound on day 14, respectively, in a multiple ascending dose study in patients with diabetic macular edema.
A phase 1B/2A open-label, Multiple-ascending dose cohort study to assess the pharmacokinetics and pharmacodynamics effect of 28-day repeat subcutaneous dose of 4-{(S)-2-[(S)-2-(methoxycarbonylamino)-3-phenylpropanamido]-2-[2-(thiophen-2-yl)thiazol-4-yl]ethyl}phenylsulfamic acid (drug) in subjects with diffuse diabetic macular edema (DME).
The aim of this study was to evaluate tolerability, safety, efficacy and pharmacokinetics and pharmacodynamics in patients with DME involving the center of the fovea with central subfield mean thickness ≧325 μm measured by spectral domain-optical coherence tomography (SD-OCT).
Twenty-four patients were administered ascending doses of test compound twice daily (BID) for 28 days in 4 separate cohorts at 5, 15, 22.5 or 30 mg BID, respectively.
Drug was supplied as a lyophilized powder in a vial for reconstitution. Each vial contained 100 mg drug and 250 mg HPβCD. Vials were reconstituted with sterile 5% dextrose for cohort 1 (5 mg BID) and with sterile diluent containing 5% HPβCD/1% dextrose for cohorts 2, 3, and 4 (15 mg, 22.5 mg and 30 mg BID).
For cohorts 1 (5 mg BID) and 2 (15 mg BID) the volume administered for each dose was 0.5 ml (10 and 30 mg/ml, respectively) and for cohorts 3 and 4 the volume was 0.75 ml (30 and 40 mg/ml, respectively).
Blood samples for pharmacokinetic profiling were taken pre-dose (0), 15 minutes, 1 hour, 2 hours, 3 hours and 4 hours after administration of the first dose on day 14.
Plasma drug concentration was determined with a validated LC/MS-MS method. The pharmacokinetic (PK) parameters were determined using a standard non-compartmental method, and Cmax, AUClast (with last being from time 0 to the last quantifiable point), AUCinf, were analyzed statistically using log-transformed data.

[3] = Chemical and physical stability of aqueous solution formulations (Table XXIX); type: physicochemical; conditions: for Concentration of test compound in aqueous solution formulation shown to be chemically and physically stable: chemically stable 1 month at 50 °C, physically stable at 5 °C, ambient, 50 °C
Description: TABLE XXIX contains aqueous solution formulations of the test compound above with the denoted solvents that have been prepared and shown to be chemically stable through 1 month at 50° C., and physically stable at 5° C., at ambient temperature, and at 50° C. […] The target pH range for the formulations is pH 7+/−0.5 pH units.

CCc1csc([C@H](Cc2ccc(NS(=O)(=O)O)cc2)NC(=O)[C@H](Cc2ccccc2)NC(=O)OC)n1
Solubility [1]: 89 mg/mL (≈ 167 mM) | Solubility ([1]; aqueous with cosolvent or surfactant or cyclodextrin, Solubility): 60 mg/mL (≈ 113 mM) | Solubility ([1]; water, Solubility): 45 mg/mL (≈ 84.5 mM)

COC(=O)N[C@@H](Cc1ccccc1)C(=O)N[C@@H](Cc1ccc(NS(=O)(=O)O)cc1)c1csc(-c2cccs2)n1 [test compound]
solubility with either HPβCD or PEG400 individually [1]: increase in solubility | Solubility ([1]; 0% HPβCD, 15% PEG400): 30 mg/mL (≈ 51.1 mM) | Solubility ([1]; 0% HPβCD, 30% PEG400): 68 mg/mL (≈ 116 mM) | Solubility ([1]; 15% HPβCD, 0% PEG400): 59 mg/mL (≈ 101 mM) | Solubility ([1]; 15% HPβCD, 5% PEG400): 57 mg/mL (≈ 97.2 mM) | Solubility ([1]; 15% HPβCD, 10% PEG400): 34 mg/mL (≈ 57.9 mM) | Solubility ([1]; 15% HPβCD, 15% PEG400): 6 mg/mL (≈ 10.2 mM) | Solubility ([1]; room temperature, aqueous, 0% HPβCD (water)): 27 mg/mL (≈ 46 mM) | Solubility ([1]; room temperature, aqueous, 10% HPβCD): 45 mg/mL (≈ 76.7 mM) | Solubility ([1]; room temperature, aqueous, 15% SBE-β-CD): 44 mg/mL (≈ 75 mM) | Solubility ([1]; room temperature, aqueous, 20% HPβCD): 57 mg/mL (≈ 97.2 mM) | Solubility ([1]; room temperature, aqueous, 20% Poloxamer 407): 44 mg/mL (≈ 75 mM) | Solubility ([1]; room temperature, aqueous, 30% HPβCD): 72 mg/mL (≈ 123 mM) | solubility on addition of PEG400 to a mixture with HPβCD ([1]; solubility inversely proportional to the amount of PEG400): erosion of solubility | overall exposures versus dose [2]: approximately dose proportional | AUCinf Geometric Mean ([2]; 5 mg): 102.92 ng·h/mL | AUCinf Mean ([2]; 5 mg): 106.46 ng·h/mL | AUCinf Median ([2]; 5 mg): 100.55 ng·h/mL | AUCinf Min-Max ([2]; 5 mg): 70.1 to 155.1 ng·h/mL | AUClast Geometric Mean ([2]; 5 mg): 98.63 ng·h/mL | AUClast Mean ([2]; 5 mg): 101.56 ng·h/mL | AUClast Median ([2]; 5 mg): 97.03 ng·h/mL | AUClast Min-Max ([2]; 5 mg): 67.9 to 142.6 ng·h/mL | Cmax Geometric Mean ([2]; 5 mg): 0.07448 µg/mL | Cmax Mean ([2]; 5 mg): 0.07775 µg/mL | Cmax Median ([2]; 5 mg): 0.07344 µg/mL | Cmax Min-Max ([2]; 5 mg): 0.0447 to 0.1081 µg/mL | t1/2 Mean (SD) ([2]; 5 mg): 0.85 (0.186) hr | t1/2 Median ([2]; 5 mg): 49.8 min | t1/2 Min-Max ([2]; 5 mg): 36 to 66 min | tmax Mean (SD) ([2]; 5 mg): 0.31 (0.134) hr | tmax Median ([2]; 5 mg): 15.6 min | tmax Min-Max ([2]; 5 mg): 18 to 36 min | AUCinf Geometric Mean ([2]; 15 mg): 245.89 ng·h/mL | AUCinf Mean ([2]; 15 mg): 255.08 ng·h/mL | AUCinf Median ([2]; 15 mg): 232.89 ng·h/mL | AUCinf Min-Max ([2]; 15 mg): 176.8 to 387.4 ng·h/mL | AUClast Geometric Mean ([2]; 15 mg): 230.97 ng·h/mL | AUClast Mean ([2]; 15 mg): 239.08 ng·h/mL | AUClast Median ([2]; 15 mg): 213.32 ng·h/mL | AUClast Min-Max ([2]; 15 mg): 170.4 to 353.3 ng·h/mL | Cmax Geometric Mean ([2]; 15 mg): 0.14986 µg/mL | Cmax Mean ([2]; 15 mg): 0.15657 µg/mL | Cmax Median ([2]; 15 mg): 0.13805 µg/mL | Cmax Min-Max ([2]; 15 mg): 0.1025 to 0.2263 µg/mL | t1/2 Mean (SD) ([2]; 15 mg): 0.96 (0.282) hr | t1/2 Median ([2]; 15 mg): 53.4 min | t1/2 Min-Max ([2]; 15 mg): 36 to 84 min | tmax Mean (SD) ([2]; 15 mg): 0.27 (0.039) hr | tmax Median ([2]; 15 mg): 15 min | tmax Min-Max ([2]; 15 mg): 12 to 18 min | AUCinf Geometric Mean ([2]; 22.5 mg): 454.63 ng·h/mL | AUCinf Mean ([2]; 22.5 mg): 498.12 ng·h/mL | AUCinf Median ([2]; 22.5 mg): 358.19 ng·h/mL | AUCinf Min-Max ([2]; 22.5 mg): 322.4 to 813.8 ng·h/mL | AUClast Geometric Mean ([2]; 22.5 mg): 400.80 ng·h/mL | AUClast Mean ([2]; 22.5 mg): 437.51 ng·h/mL | AUClast Median ([2]; 22.5 mg): 328.84 ng·h/mL | AUClast Min-Max ([2]; 22.5 mg): 302.7 to 789.6 ng·h/mL | Cmax Geometric Mean ([2]; 22.5 mg): 0.21572 µg/mL | Cmax Mean ([2]; 22.5 mg): 0.2374 µg/mL | Cmax Median ([2]; 22.5 mg): 0.2032 µg/mL | Cmax Min-Max ([2]; 22.5 mg): 0.1427 to 0.4005 µg/mL | t1/2 Mean (SD) ([2]; 22.5 mg): 0.84 (0.093) hr | t1/2 Median ([2]; 22.5 mg): 52.2 min | t1/2 Min-Max ([2]; 22.5 mg): 42 to 54 min | tmax Mean (SD) ([2]; 22.5 mg): 0.45 (0.370) hr | tmax Median ([2]; 22.5 mg): 16.2 min | tmax Min-Max ([2]; 22.5 mg): 18 to 60 min | AUCinf Geometric Mean ([2]; 30 mg): 824.87 ng·h/mL | AUCinf Mean ([2]; 30 mg): 828.62 ng·h/mL | AUCinf Median ([2]; 30 mg): 834.70 ng·h/mL | AUCinf Min-Max ([2]; 30 mg): 729.7 to 921.4 ng·h/mL | AUClast Geometric Mean ([2]; 30 mg): 657.33 ng·h/mL | AUClast Mean ([2]; 30 mg): 669.37 ng·h/mL | AUClast Median ([2]; 30 mg): 700.90 ng·h/mL | AUClast Min-Max ([2]; 30 mg): 444.1 to 796.1 ng·h/mL | Cmax Geometric Mean ([2]; 30 mg): 0.31424 µg/mL | Cmax Mean ([2]; 30 mg): 0.32048 µg/mL | Cmax Median ([2]; 30 mg): 0.32085 µg/mL | Cmax Min-Max ([2]; 30 mg): 0.2209 to 0.4261 µg/mL | t1/2 Mean (SD) ([2]; 30 mg): 1.07 (0.338) hr | t1/2 Median ([2]; 30 mg): 55.8 min | t1/2 Min-Max ([2]; 30 mg): 48 to 90 min | tmax Mean (SD) ([2]; 30 mg): 0.63 (0.391) hr | tmax Median ([2]; 30 mg): 38.4 min | tmax Min-Max ([2]; 30 mg): 12 to 60 min | Tmax ([2]; sc, 30 mg): 12 to 60 min | elimination half-life ([2]; sc, 30 mg): 36 to 90 min | Physical and chemical stability of formulation ([3]; 4.5% mannitol, 5 mg/mL test compound, one week at room temperature and one week at 50 °C): ^bPhysically and chemically stable through one week at room temperature and one week at 50 °C | Concentration of test compound in aqueous solution formulation shown to be stable ([3]; 4.5% mannitol, one week at room temperature and one week at 50 °C): 5 mg/mL^b | Concentration of test compound in aqueous solution formulation shown to be chemically and physically stable ([3]; 10% HPβCD): 15000 µg/mL | Concentration of test compound in aqueous solution formulation evaluated for stability ([3]; 15% HPβCD/0.25% saline, evaluated for short-term physical stability at 5 °C and ambient temperature): 40 mg/mL^a | Concentration of test compound in aqueous solution formulation shown to be chemically and physically stable ([3]; 25% HPβCD): 50000 µg/mL | Concentration of test compound in aqueous solution formulation shown to be chemically and physically stable ([3]; 30% HPβCD): 50000 µg/mL
